Test results as given in ChEMBL document CHEMBL1201862, “PubChem BioAssay data set” (2004).
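Briefly, cells in 96-well plates were exposed to five compound concentrations for 48 h, and endpoints were estimated by linear interpolation. GI50 marks 50% less growth.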 Calls of active or inactive are those of the source. No stated cut-off is given here; in the data, active = GI50 up to about 1.1 µM and inactive = higher.

Experiments:
Assay in all cases: DTP human tumour cell line panel, 48 h
786-0 = tested on: 786-0
A498 = tested on: A498
A549 = tested on: A549
ACHN = tested on: ACHN
BT-549 = tested on: BT-549
CAKI-1 = tested on: CAKI-1
CCRF-CEM = tested on: CCRF-CEM
COLO 205 = tested on: COLO 205
DU-145 = tested on: DU-145
HCC 2998 = tested on: HCC 2998
HCT-116 = tested on: HCT-116
HCT-15 = tested on: HCT-15
HL-60 = tested on: HL-60
HOP-62 = tested on: HOP-62
HOP-92 = tested on: HOP-92
HT-29 = tested on: HT-29
Hs-578T = tested on: Hs-578T
K562 = tested on: K562
KM12 = tested on: KM12
LOX IMVI = tested on: LOX IMVI
M14 = tested on: M14
MCF7 = tested on: MCF7
MDA-MB-231 = tested on: MDA-MB-231
MDA-MB-435 = tested on: MDA-MB-435
MDA-N = tested on: MDA-N
MOLT-4 = tested on: MOLT-4
NCI-H226 = tested on: NCI-H226
NCI-H23 = tested on: NCI-H23
NCI-H460 = tested on: NCI-H460
NCI/ADR-RES = tested on: NCI/ADR-RES
OVCAR-3 = tested on: OVCAR-3
OVCAR-4 = tested on: OVCAR-4
OVCAR-5 = tested on: OVCAR-5
OVCAR-8 = tested on: OVCAR-8
PC-3 = tested on: PC-3
RPMI-8226 = tested on: RPMI-8226
RXF 393 = tested on: RXF 393
SF-268 = tested on: SF-268
SF-295 = tested on: SF-295
SF-539 = tested on: SF-539
SK-MEL-28 = tested on: SK-MEL-28
SK-MEL-2 = tested on: SK-MEL-2
SK-MEL-5 = tested on: SK-MEL-5
SK-OV-3 = tested on: SK-OV-3
SN12C = tested on: SN12C
SNB-19 = tested on: SNB-19
SNB-75 = tested on: SNB-75
SW-620 = tested on: SW-620
T47D = tested on: T47D
TK-10 = tested on: TK-10
U-251 = tested on: U-251
UACC-257 = tested on: UACC-257
UACC-62 = tested on: UACC-62
UO-31 = tested on: UO-31
EKVX = tested on: EKVX
IGROV-1 = tested on: IGROV-1
Malme-3M = tested on: Malme-3M
NCI-H522 = tested on: NCI-H522

SMILES: COc1ccccc1-c1nc(-c2ccccc2O)n[nH]1
- GI50 (786-0): > 100 µM (inactive)
- GI50 (A498): > 100 µM (inactive)
- GI50 (A549): > 100 µM (inactive)
- GI50 (ACHN): > 100 µM (inactive)
- GI50 (BT-549): > 100 µM (inactive)
- GI50 (CAKI-1): > 100 µM (inactive)
- GI50 (CCRF-CEM): > 100 µM (inactive)
- GI50 (COLO 205): > 100 µM (inactive)
- GI50 (DU-145): > 100 µM (inactive)
- GI50 (HCC 2998): > 100 µM (inactive)
- GI50 (HCT-116): > 100 µM (inactive)
- GI50 (HCT-15): 45.9 µM
- GI50 (HL-60): > 100 µM (inactive)
- GI50 (HOP-62): > 100 µM (inactive)
- GI50 (HOP-92): > 100 µM (inactive)
- GI50 (HT-29): > 100 µM (inactive)
- GI50 (Hs-578T): > 100 µM (inactive)
- GI50 (K562): > 100 µM (inactive)
- GI50 (KM12): > 100 µM (inactive)
- GI50 (LOX IMVI): 71.1 µM (inactive)
- GI50 (M14): > 100 µM (inactive)
- GI50 (MCF7): > 100 µM (inactive)
- GI50 (MDA-MB-231): > 100 µM (inactive)
- GI50 (MDA-MB-435): > 100 µM (inactive)
- GI50 (MDA-N): > 100 µM (inactive)
- GI50 (MOLT-4): > 100 µM (inactive)
- GI50 (NCI-H226): > 100 µM (inactive)
- GI50 (NCI-H23): > 100 µM (inactive)
- GI50 (NCI-H460): > 100 µM (inactive)
- GI50 (NCI/ADR-RES): > 100 µM (inactive)
- GI50 (OVCAR-3): > 100 µM (inactive)
- GI50 (OVCAR-4): > 100 µM (inactive)
- GI50 (OVCAR-5): > 100 µM (inactive)
- GI50 (OVCAR-8): > 100 µM (inactive)
- GI50 (PC-3): > 100 µM (inactive)
- GI50 (RPMI-8226): > 100 µM (inactive)
- GI50 (RXF 393): > 100 µM (inactive)
- GI50 (SF-268): > 100 µM (inactive)
- GI50 (SF-295): > 100 µM (inactive)
- GI50 (SF-539): > 100 µM (inactive)
- GI50 (SK-MEL-28): > 100 µM (inactive)
- GI50 (SK-MEL-2): > 100 µM (inactive)
- GI50 (SK-MEL-5): > 100 µM (inactive)
- GI50 (SK-OV-3): > 100 µM (inactive)
- GI50 (SN12C): > 100 µM (inactive)
- GI50 (SNB-19): > 100 µM (inactive)
- GI50 (SNB-75): > 100 µM (inactive)
- GI50 (SW-620): > 100 µM (inactive)
- GI50 (T47D): 37.2 µM (inactive)
- GI50 (TK-10): > 100 µM (inactive)
- GI50 (U-251): > 100 µM (inactive)
- GI50 (UACC-257): > 100 µM (inactive)
- GI50 (UACC-62): > 100 µM (inactive)
- GI50 (UO-31): > 100 µM (inactive)

SMILES: Clc1ccc(CSc2ncnc3c2ncn3C2CCCCO2)cc1 (stereo not drawn)
- GI50 (786-0): 22.5 µM (inactive)
- GI50 (A498): 16.4 µM (inactive)
- GI50 (A549): 25.2 µM (inactive)
- GI50 (ACHN): 16.1 µM (inactive)
- GI50 (BT-549): 24.3 µM (inactive)
- GI50 (CAKI-1): 26.3 µM (inactive)
- GI50 (COLO 205): 20 µM (inactive)
- GI50 (DU-145): 31.2 µM (inactive)
- GI50 (EKVX): 13.4 µM (inactive)
- GI50 (HCC 2998): 18.6 µM (inactive)
- GI50 (HCT-116): 20.8 µM (inactive)
- GI50 (HCT-15): 26.5 µM
- GI50 (HOP-62): 18.7 µM (inactive)
- GI50 (HOP-92): 24.7 µM (inactive)
- GI50 (HT-29): 18.8 µM (inactive)
- GI50 (Hs-578T): 26.5 µM (inactive)
- GI50 (IGROV-1): 30.3 µM (inactive)
- GI50 (K562): 12.6 µM (inactive)
- GI50 (KM12): 19.1 µM (inactive)
- GI50 (LOX IMVI): 18.5 µM (inactive)
- GI50 (M14): 17.1 µM (inactive)
- GI50 (MCF7): 26.6 µM (inactive)
- GI50 (MDA-MB-231): 24.5 µM (inactive)
- GI50 (MDA-MB-435): 18.2 µM (inactive)
- GI50 (MDA-N): 20.1 µM (inactive)
- GI50 (Malme-3M): 17.9 µM (inactive)
- GI50 (NCI-H226): 28.4 µM (inactive)
- GI50 (NCI-H23): 17.4 µM (inactive)
- GI50 (NCI-H460): 16.9 µM (inactive)
- GI50 (NCI-H522): 13.8 µM (inactive)
- GI50 (NCI/ADR-RES): 17.9 µM (inactive)
- GI50 (OVCAR-3): 15.7 µM (inactive)
- GI50 (OVCAR-4): 25.2 µM (inactive)
- GI50 (OVCAR-5): 37.4 µM (inactive)
- GI50 (OVCAR-8): 22.9 µM (inactive)
- GI50 (PC-3): 25.6 µM (inactive)
- GI50 (RPMI-8226): 14.3 µM (inactive)
- GI50 (RXF 393): 25.1 µM (inactive)
- GI50 (SF-268): 23.3 µM (inactive)
- GI50 (SF-295): 15.7 µM (inactive)
- GI50 (SK-MEL-28): 22.8 µM (inactive)
- GI50 (SK-MEL-2): 16.4 µM (inactive)
- GI50 (SK-MEL-5): 10.9 µM (inactive)
- GI50 (SK-OV-3): 21.4 µM (inactive)
- GI50 (SN12C): 18.3 µM (inactive)
- GI50 (SNB-19): 34.8 µM (inactive)
- GI50 (SNB-75): 20.2 µM (inactive)
- GI50 (SW-620): 29.9 µM (inactive)
- GI50 (T47D): 17.4 µM (inactive)
- GI50 (TK-10): 21.8 µM (inactive)
- GI50 (U-251): 19.6 µM (inactive)
- GI50 (UACC-257): 11.2 µM (inactive)
- GI50 (UACC-62): 15.7 µM (inactive)
- GI50 (UO-31): 1.88 µM (inactive)
